# Test results as given in PubChem BioAssay (NCI).
#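 48-hour exposure; five concentrations; linearly interpolated endpoints. TGI is the concentration that stops growth completely.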
# Legend:
# Test in all cases: NCI tumour cell line growth inhibition, 48 h
# T-47D breast = test system: T-47D breast
# A549 NSCLC = test system: A549 NSCLC
# SF-268 CNS = test system: SF-268 CNS
# HL-60(TB) leukemia = test system: HL-60(TB) leukemia
# HCC-2998 colon = test system: HCC-2998 colon
# KM12 colon = test system: KM12 colon
# OVCAR-3 ovarian = test system: OVCAR-3 ovarian
# EKVX NSCLC = test system: EKVX NSCLC
# SF-539 CNS = test system: SF-539 CNS
# SK-MEL-28 melanoma = test system: SK-MEL-28 melanoma
# ACHN renal = test system: ACHN renal
# HOP-62 NSCLC = test system: HOP-62 NSCLC
# PC-3 prostate = test system: PC-3 prostate
# NCI/ADR-RES ovarian = test system: NCI/ADR-RES ovarian
# UO-31 renal = test system: UO-31 renal
# HOP-92 NSCLC = test system: HOP-92 NSCLC
# SR leukemia = test system: SR leukemia
# 786-0 renal = test system: 786-0 renal
# LOX IMVI melanoma = test system: LOX IMVI melanoma
# A498 renal = test system: A498 renal
Compound,TGI (T-47D breast) [µM],TGI (A549 NSCLC) [µM],TGI (SF-268 CNS) [µM],TGI (HL-60(TB) leukemia) [µM],TGI (HCC-2998 colon) [µM],TGI (KM12 colon) [µM],TGI (OVCAR-3 ovarian) [µM],TGI (EKVX NSCLC) [µM],TGI (SF-539 CNS) [µM],TGI (SK-MEL-28 melanoma) [µM],TGI (ACHN renal) [µM],TGI (HOP-62 NSCLC) [µM],TGI (PC-3 prostate) [µM],TGI (NCI/ADR-RES ovarian) [µM],TGI (UO-31 renal) [µM],TGI (HOP-92 NSCLC) [µM],TGI (SR leukemia) [µM],TGI (786-0 renal) [µM],TGI (LOX IMVI melanoma) [µM],TGI (A498 renal) [µM]
CC(C)COP(C)(=O)C(N)(C(F)(F)F)C(F)(F)F (stereo unspecified),> 100,> 100,> 100,> 100,> 100,> 100,> 100,> 100,> 100,> 100,> 100,> 100,> 100,> 100,> 100,> 100,> 100,> 100,> 100,–
CCCn1c(=O)c2nn3c(=O)n(CCC)c(=O)c3nn2c1=O,> 100,> 100,> 100,> 100,> 100,> 100,> 100,> 100,> 100,> 100,> 100,> 100,> 100,> 100,> 100,> 100,> 100,> 100,> 100,–
CN1CC=C(c2cccn2C)CC1,> 100,> 100,> 100,> 100,> 100,> 100,> 100,> 100,–,> 100,> 100,> 100,> 100,> 100,> 100,–,> 100,> 100,> 100,–
O=c1nc2c(c(-c3ccc(F)cc3)[nH]1)COC/C2=C\c1ccc(F)cc1,> 100,–,> 100,–,> 100,> 100,> 100,> 100,> 100,–,> 100,> 100,> 100,> 100,> 100,> 100,> 100,> 100,> 100,> 100
Cc1ccc(SCC(CF)OC(C)n2cnc3c(Cl)nc(N)nc32)cc1 (stereo unspecified),> 100,> 100,> 100,86.3,> 100,> 100,> 100,–,> 100,> 100,> 100,> 100,> 100,> 100,> 100,> 100,> 100,> 100,> 100,–
CCOC(=O)c1cn(CC)c2ccc3ccsc3c2c1=O,> 100,> 100,> 100,> 100,> 100,> 100,> 100,> 100,> 100,> 100,> 100,> 100,> 100,> 100,> 100,> 100,–,> 100,> 100,> 100
O=C(/C=C/c1ccc(O)c(O)c1)NC(COC(=O)/C=C/c1ccc(O)c(O)c1)C(=O)O (stereo unspecified),> 100,> 100,> 100,–,> 100,> 100,> 100,> 100,> 100,> 100,> 100,> 100,> 100,> 100,> 100,> 100,> 100,> 100,> 100,> 100
COc1cc2cc3c4cc(OC)c(OC)cc4cc[n+]3c(C)c2cc1OC,> 100,> 100,> 100,> 100,> 100,> 100,> 100,> 100,> 100,> 100,> 100,–,> 100,> 100,> 100,> 100,–,37.9,> 100,> 100
CC(=O)N=c1ccc2nc(N)nn(O)c-2c1,> 100,> 100,> 100,> 100,–,> 100,> 100,> 100,> 100,> 100,> 100,> 100,> 100,> 100,> 100,–,> 100,> 100,> 100,> 100
Cc1c(-c2nc(N)c(C#N)c(N)c2C#N)c(=O)oc2ccccc12,> 100,> 100,> 100,> 100,> 100,> 100,> 100,> 100,> 100,> 100,> 100,> 100,> 100,> 100,> 100,> 100,–,> 100,> 100,> 100
CCC(c1ccc(OC)cc1)C1NC(=S)NC1=O (stereo unspecified),> 50,> 50,> 50,47.3,> 50,> 50,> 50,> 50,> 50,> 50,> 50,> 50,> 50,> 50,> 50,> 50,–,> 50,> 50,> 50
COc1ccccc1NC(=O)C(=O)Cc1cnc2ccccc2n1,> 100,> 100,> 100,> 100,> 100,> 100,> 100,–,> 100,> 100,> 100,–,> 100,> 100,> 100,> 100,> 100,> 100,> 100,> 100
CCOC(=O)C1=CNC(C(=O)OCC)C1c1cccn1-c1ccccc1 (stereo unspecified),> 100,> 100,> 100,–,> 100,98.7,> 100,> 100,47.1,76.3,> 100,> 100,71.3,91.4,> 100,56.8,55.3,> 100,31,> 100
O=C(Oc1c(Br)cc(Br)cc1C(=O)Oc1ccccc1)C(=O)Oc1c(Br)cc(Br)cc1C(=O)Oc1ccccc1,75,73.8,> 100,> 100,> 100,84.1,66.2,> 100,51.8,> 100,> 100,45.1,69.6,> 100,49.7,38.4,56.1,50.3,–,–
Oc1c(Cl)c(Cl)c(O)c(CCNc2nccs2)c1Cl,34.8,49.8,36.1,> 100,30.3,35.8,33.3,41.1,4.14,67.9,23.4,40.7,45.1,50.5,32.9,> 100,25.6,33.5,–,–
COC(=O)[C@]1(C)CCC[C@]2(C)[C@@H](CCC(=O)C(C)C)[C@]3(C=O)O[C@@H]3C[C@H]21,95.7,> 100,> 100,> 100,> 100,> 100,> 100,> 100,> 100,> 100,57.3,–,> 100,90.4,48.4,> 100,> 100,> 100,92.3,–
CCCCCCCc1cscc1-c1cscc1Br,88.3,> 100,> 100,–,75.6,80.7,–,> 100,> 100,> 100,> 100,> 100,> 100,> 100,> 100,–,41.3,> 100,36.4,> 100
C(=N\NC1=NCCN1)/c1cccc2cc3ccncc3nc12,12.7,20.2,14.2,2.76,18.3,17.9,17.1,14.9,21.2,22.8,13.6,19.7,13.7,25.2,14.2,6.4,–,4.51,3.39,23.9
CCCCCCCCCCCCCCCC(=O)Nc1ccn(C2CCC(COP(=O)(O)OCC3OC(n4cc(F)c(=O)[nH]c4=O)CC3OC(C)=O)O2)c(=O)n1 (stereo unspecified),> 66.5,> 54.2,> 82.8,27.9,> 48.2,34.8,59,> 100,> 23.3,43.8,> 100,37.7,56.8,> 100,28.9,66.3,–,> 100,39.8,> 100
CC1(C)SCc2nc3ccccc3n21,> 100,> 100,> 100,> 100,> 100,> 100,> 100,> 100,> 100,> 100,> 100,> 100,> 100,> 100,> 100,> 100,–,> 100,> 100,> 100
O=C(O)C1=CN(c2ccncc2)C(c2ccco2)=CC1c1ccccc1[N+](=O)[O-] (stereo unspecified),25,34.2,25.9,> 100,3.62,3.4,21.2,23.8,10.3,40.9,3.59,32.9,28,> 69.8,23.3,27.7,–,4.15,3.85,28.7
Fc1cccc(C2SCc3nc4cc5ccccc5cc4n32)c1 (stereo unspecified),> 100,> 100,> 100,–,> 100,> 100,> 100,> 100,> 100,> 100,> 100,> 100,> 100,> 100,> 100,> 100,> 100,> 100,> 100,–
C=C(CCC/C(C)=C/C=C/[C@H](C)CCCc1ccoc1)C[C@@H]1OC(=O)[C@H](C)[C@@H]1O,17.6,15.2,18.1,–,37,23.3,17.6,21,19.2,15.6,18.4,18.8,17.2,22.5,15.6,18.5,37.8,27.4,31.6,17.2
CC(CNC(=O)c1ccccc1)(CNC(=O)c1ccccc1)[N+](=O)[O-],> 100,> 100,> 100,> 100,–,> 100,–,> 100,> 100,–,> 100,–,> 100,> 100,> 100,> 100,> 100,> 100,–,–
c1ccc(-c2cc(-c3ccncc3)cc(-c3ccncc3)n2)cc1,> 100,> 100,> 100,> 100,> 100,> 100,> 100,> 100,–,> 100,> 100,> 100,> 100,> 100,> 100,–,> 100,> 100,> 100,–
CN1C(C)(C)CC(=O)C(Br)C1(C)C (stereo unspecified),> 100,> 100,> 100,> 100,–,> 100,> 100,> 100,–,> 100,> 100,> 100,> 100,> 100,> 100,> 100,> 100,> 100,> 100,–
